# Earlier results as cited in patent publication US8106048B2, “Heterocyclic NF-κB inhibitors” (4SC AG, priority 2004, dated 2012).
# How the values were obtained:
# [1] = system: TNF-α; conditions: mouse; cited from earlier work
# [2] = system: NF-κB; conditions: cited from earlier work
# [3] = molecular target: T1, 20S and 26S proteasome (Homo sapiens, UniProt P28072+P28074+Q99436); conditions: cited from earlier work
# T1 sequence (P28074 60-263): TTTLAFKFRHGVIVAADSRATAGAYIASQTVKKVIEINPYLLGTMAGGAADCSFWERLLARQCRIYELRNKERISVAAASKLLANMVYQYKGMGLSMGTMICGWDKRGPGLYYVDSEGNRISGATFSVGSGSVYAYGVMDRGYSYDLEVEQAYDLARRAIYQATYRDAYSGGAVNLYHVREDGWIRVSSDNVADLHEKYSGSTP
# T1 sequence (P28072 1-239): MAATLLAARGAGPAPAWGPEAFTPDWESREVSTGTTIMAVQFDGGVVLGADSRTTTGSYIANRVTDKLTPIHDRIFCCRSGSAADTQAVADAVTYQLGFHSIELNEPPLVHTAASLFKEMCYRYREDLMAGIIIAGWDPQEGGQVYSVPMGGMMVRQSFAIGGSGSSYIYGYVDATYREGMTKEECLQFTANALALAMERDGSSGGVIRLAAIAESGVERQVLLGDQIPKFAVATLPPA
# T1 sequence (Q99436 44-277): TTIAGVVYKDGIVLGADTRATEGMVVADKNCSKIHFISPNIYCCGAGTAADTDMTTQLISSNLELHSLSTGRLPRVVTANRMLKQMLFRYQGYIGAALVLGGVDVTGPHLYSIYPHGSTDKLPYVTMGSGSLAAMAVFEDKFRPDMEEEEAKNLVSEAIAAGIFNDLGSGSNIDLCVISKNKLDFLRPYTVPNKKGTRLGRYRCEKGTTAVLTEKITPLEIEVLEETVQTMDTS
Compound,lipopolysaccharide-induced TNF-α production [1],inhibition of NF-κB transcriptional activation [2],inhibition of 20S and 26S proteasome [3],"inhibitory activity on proteasome peptidase activities ([3]; trypsin-like, chymotrypsin-like, peptidylglutamylpeptide hydrolyzing)"
CCN(CC)CCNC(=O)c1ccc(N)c(Cl)c1 [3-chloroprocainamide],blocked lipopolysacharide-induced TNF-α production in mouse in a dose dependent manner,inhibitors of NF-κB transcritional activation,,
CC(=O)N[C@@H](CSC(=O)[C@]1([C@@H](O)C(C)C)NC(=O)[C@H](C)[C@@H]1O)C(=O)O [Lactacystin],,,"inhibits both, 20S and 26S proteasome","inhibitory activity on trypsin-like, chymotrypsin-like and peptidylglutamylpeptide hydrolyzing activities"
S=C(S)N1CCCC1 [pyrrolidine dithiocarbamate],blocked lipopolysacharide-induced TNF-α production in mouse in a dose dependent manner,inhibitors of NF-κB transcritional activation,,
